Data on 13 molecules can be found in patent US5986108A, “4-substitued-3-[1 or 2 amino acid residue]-azetidin-2-one derivatives useful as cysteine proteinase inhibitor” (Synphar Laboratories, Inc., priority 1997, dated 1999).

Holding throughout (assay type): biochemical
The target of one assay is T1, papain (Carica papaya, UniProt P00784).
T1 sequence (P00784 134-345): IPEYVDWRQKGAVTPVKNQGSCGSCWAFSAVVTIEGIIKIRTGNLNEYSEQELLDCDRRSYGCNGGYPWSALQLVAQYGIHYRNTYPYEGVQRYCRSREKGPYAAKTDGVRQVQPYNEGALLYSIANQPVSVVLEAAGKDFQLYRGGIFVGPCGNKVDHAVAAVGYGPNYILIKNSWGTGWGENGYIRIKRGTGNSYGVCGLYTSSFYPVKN
Briefly: Assay of inhibition of papain (N-CBZ-Pro-Phe-Arg-pNA substrate). The protocol:
To a 170 μl of enzyme-buffer mixture (enzyme:papain, diluted to give 30 mOD/min, buffer: 0.2M potassium phosphate, 1.0 mM EDTA, 5 mML Cysteine, pH6.5) a 10 μl of inhibitor (dissolved in DMSO) was added. After 10 min of incubation at room temperature, 20 μl of 10 mM substrate (N-CBZ-Pro-Phe-Arg-pNA, dissolved in DMSO) was added to initiate reaction. Reading is followed up for 3 min at the Thermomax plate reader(absorbance at 405 nm).
A plot of percentage of inhibition vs inhibitor concentration is obtained, and IC50 is determined using a linear regression calculations (concentration of inhibitor which will give 50% inhibition).

The target in another assay is Cathepsin B (Rattus norvegicus, UniProt P00787). Briefly: In vitro assay of inhibition of Cathepsin B (N-CBZ-Phe-Arg-AMC substrate). The protocol:
After 10 min of incubation at room temperature a 20 μl of 5 mM substrate (N-CBZ-Phe-Arg-AMC, dissolved in DMSO) was added to initiate reaction. Reading is followed up for 10 min at the Fluoroscan reader (excitation at 380 nm, emission at 460 nm).

The next assay addresses Cathepsin L (Rattus norvegicus, UniProt P07154). Briefly: Assay of inhibition of Cathepsin L (N-CBZ-Phe-Arg-AMC substrate). As for the experimental part: After 10 min of incubation at room temperature a 20 μl of 1 mM substrate (N-CBZ-Phe-Arg-AMC, dissolved in DMSO) was added to initiate reaction. Reading is followed up for 10 min at the Fluoroscan reader (excitation at 380 nm, emission at 460 nm).

Setting [1] is: r rat CathB, pH5.1, 10 min preincubation at room temperature, read-out: IC50, Cathepsin B.
[2] abbreviates: r rat CathL, pH5.0, 10 min preincubation at room temperature, read-out: IC50, Cathepsin L.
The mark [3] stands for this setting: pH6.5, 10 min preincubation at room temperature, read-out: IC50, Papain.

Where two headings read alike, the source gives them in different places. Where only a bound is given, the exact number is not on record here.

Chain of Cathepsin L (P07154 114-334): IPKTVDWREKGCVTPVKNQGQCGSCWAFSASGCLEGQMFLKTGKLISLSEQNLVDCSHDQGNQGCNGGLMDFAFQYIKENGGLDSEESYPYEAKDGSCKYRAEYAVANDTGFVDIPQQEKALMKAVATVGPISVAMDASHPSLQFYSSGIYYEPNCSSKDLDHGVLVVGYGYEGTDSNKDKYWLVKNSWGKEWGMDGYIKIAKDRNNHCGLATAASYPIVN
Chain of Cathepsin B (P00787 80-339): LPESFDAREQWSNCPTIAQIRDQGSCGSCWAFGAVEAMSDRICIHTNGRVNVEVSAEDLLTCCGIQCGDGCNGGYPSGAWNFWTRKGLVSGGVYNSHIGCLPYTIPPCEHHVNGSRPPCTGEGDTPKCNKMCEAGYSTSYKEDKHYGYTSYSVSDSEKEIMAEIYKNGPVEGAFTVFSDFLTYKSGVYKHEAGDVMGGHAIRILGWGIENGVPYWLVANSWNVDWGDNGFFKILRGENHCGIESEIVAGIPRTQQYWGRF

The term IC50 denotes the midpoint of a concentration-inhibition curve. Turning to `C[C@H]1[C@H](NC(=O)CNC(=O)[C@H](Cc2ccccc2)NC(=O)OCc2ccccc2)C(=O)N1S(=O)(=O)O` [Example 6, Potassium (3S,4S)-3-(N-benzyloxycarbonyl-L-phenylalanyl-glycinyl)-amino-4-methyl-azetidin-2-one-1-sulfonate], the IC50 on papain and at Cathepsin B (setting [1]) was greater than 25000 nM in each case.

Consider `CC(=O)O[C@@H]1NC(=O)[C@H]1NC(=O)[C@H](C)NC(=O)OCc1ccccc1` [Example 33, (3S,4S)-3-(N-benzyloxycarbonyl-L-alanyl)-amino-4-acetoxy-azetidin-2-one], for which the IC50 worked out at 35900 nM on Cathepsin L (setting [2]), 7030 nM at papain and 14300 nM on Cathepsin B (setting [1]).

For `CC(=O)O[C@@H]1NC(=O)[C@H]1NC(=O)[C@H](CC(C)C)NC(=O)OCc1ccccc1` [Example 8, (3S,4S)-3-(N-benzyloxycarbonyl-L-leucyl)-amino-4-acetoxy-azetidin-2-one], the IC50 turned out to be 30 nM against Cathepsin L and 731 nM against papain.

For the molecule `CON1C[C@H](NC(=O)[C@H](Cc2ccccc2)NC(=O)OCc2ccccc2)C1=O` [Example 1, (3S)-3-(N-benzyloxycarbonyl-L-phenylalanyl)-amino-1-methoxy-azetidin-2-one], the IC50 on papain and at Cathepsin B (setting [1]) was greater than 63000 nM in each case.

As for `C[C@H]1[C@H](NC(=O)[C@H](Cc2ccccc2)NC(=O)OCc2ccccc2)C(=O)N1S(=O)(=O)O` [Example 5, Potassium (3S,4S)-3-(N-benzyloxycarbonyl-L-phenylalanyl)-amino-4-methyl-azetidin-2-one-1-sulfonate], the 50% inhibitory concentration (IC50) at papain and on Cathepsin B (setting [1]) was greater than 25000 nM in each case.

`CC(=O)O[C@@H]1NC(=O)[C@H]1NC(=O)[C@H](Cc1ccccc1)NC(=O)OCc1ccccc1` [Example 7, (3S,4S)-3-(N-benzyloxycarbonyl-L-phenylalanyl)-amino-4-acetoxy-azetidin-2-one] showed an IC50 at papain of 275 nM.

At papain, `O=C(N[C@@H](Cc1ccccc1)C(=O)N[C@@H]1CNC1=O)OCc1ccccc1` [Example 4, (3R)-3-(N-benzyloxycarbonyl-L-phenylalanyl)-amino-azetidin-2-one] came in with an IC50 of 57000 nM.

For the molecule `CC(C)C[C@H](NC(=O)[C@H]1O[C@@H]1C(=O)O)C(=O)NCCCCN=C(N)N` [Example E-64, reference compound], the IC50 was found to be 15 nM at Cathepsin L (setting [2]), 2.5 nM at papain (setting [3]) and 5 nM at Cathepsin B (setting [1]).

Consider `N[C@@H](Cc1ccc(O[C@@H]2NC(=O)[C@H]2NC(=O)[C@H](Cc2ccccc2)NC(=O)CCc2ccccc2)cc1)C(=O)O` [Example 29B, (3S,4S)-3-{N-(3-phenylpropionoyl)-L-phenylalanyl}-amino-4-{4-(L-2-amino-2-carboxy-ethyl)-phenoxy}-azetidin-2-one], for which the IC50 on Cathepsin L (setting [2]) was 292 nM; against papain it was 368 nM; on Cathepsin B (setting [1]), greater than 46000 nM.

Turning to `CC(=O)N[C@@H](CC(C)C)C(=O)N[C@@H](CC(C)C)C(=O)N[C@H](C=O)CCCNC(=N)N` [Leupeptin, reference compound], the IC50 was determined as 8 nM at Cathepsin L (setting [2]), 12 nM on papain (setting [3]) and 13 nM against Cathepsin B.

As for `CON1C[C@@H](NC(=O)[C@H](Cc2ccccc2)NC(=O)OCc2ccccc2)C1=O` [Example 3, (3R)-3-(N-benzyloxycarbonyl-L-phenylalanyl)-amino-1-methoxy-azetidin-2-one], the results for the IC50 at papain and on Cathepsin B (setting [1]) were greater than 63000 nM and 52000 nM, respectively.

As for `CC(=O)N[C@@H](Cc1ccccc1)C(=O)N[C@@H]1C(=O)N[C@H]1OC(C)=O` [Example 9], the IC50 on Cathepsin L (setting [2]) worked out at 2700 nM; on papain (setting [3]), 228 nM; at Cathepsin B (setting [1]) it was 42300 nM.

With `O=C(N[C@@H](Cc1ccccc1)C(=O)N[C@H]1CNC1=O)OCc1ccccc1` [Example 2, (3S)-3-(N-benzyloxycarbonyl-L-phenylalanyl)-amino-azetidin-2-one], the IC50 against papain worked out at 15800 nM; on Cathepsin B (setting [1]) it was 4810 nM.
